What was measured:
[1] = system: factor Xa; test: Measurement of anti-Xa activity using Test Team Heparin S; assay type: biochemical; conditions: Test Team Heparin S kit
Source text: In general, anticoagulant activity is based on the activity of inhibiting blood coagulation factors. That is, when anticoagulant activity is high, a blood coagulation reaction is inhibited. Blood coagulation factors refer to the action system of a series of molecules in a living body for coagulating blood when bleeding etc. Successive activation of a large number of blood coagulation factors agglutinates fibrin, and stops bleeding in the bleeding area. Representative examples of blood coagulation factors include factor Xa and factor IIa. Blood coagulation can be inhibited by inhibiting the activity of these factors. Here, the factor Xa inhibitory activity (anti-Xa activity) can be measured using Test Team (registered trademark) Heparin S (manufactured by Sekisui Medical Co., Ltd.). Measurement of Anti-Xa Activity The anti-Xa activity of pentosan polysulfate sodium was measured using Test Team (registered trademark) Heparin S (manufactured by Sekisui Medical Co., Ltd.).

[2] = biological target: T1, factor IIa (Homo sapiens, UniProt P00734); test: Measurement of anti-IIa activity using Biophen heparin anti-IIa; assay type: biochemical; conditions: Biophen heparin anti-IIa kit
T1 construct: purchased Hyphen BioMed Biophen heparin anti-IIa
Source text: In general, anticoagulant activity is based on the activity of inhibiting blood coagulation factors. That is, when anticoagulant activity is high, a blood coagulation reaction is inhibited. Blood coagulation factors refer to the action system of a series of molecules in a living body for coagulating blood when bleeding etc. Successive activation of a large number of blood coagulation factors agglutinates fibrin, and stops bleeding in the bleeding area. Representative examples of blood coagulation factors include factor Xa and factor IIa. Blood coagulation can be inhibited by inhibiting the activity of these factors. The factor IIa inhibitory activity (anti-IIa activity) can be measured using Biophen heparin anti-IIa (manufactured by Hyphen BioMed). Measurement of Anti-IIa Activity The anti-IIa activity of pentosan polysulfate sodium was measured using Biophen heparin anti-IIa (manufactured by Hyphen BioMed).

Row | Substance | Anti-Xa activity [1] | Anti-IIa activity [2]
1 | pentosan polysulfate sodium [Comparative Example 1, reference compound] | 0.0840 IU/mg | 0.0221 IU/mg
2 | pentosan polysulfate sodium [Example 1] | 0.2047 IU/mg | 0.1405 IU/mg
3 | pentosan polysulfate sodium [Example 2] | 0.2588 IU/mg | 0.1845 IU/mg
4 | pentosan polysulfate sodium [Example 3] | 0.2439 IU/mg | 0.0676 IU/mg
5 | pentosan polysulfate sodium [Example 4] | 0.2419 IU/mg | 0.0934 IU/mg
6 | pentosan polysulfate sodium [Example 5] | 0.2297 IU/mg | 0.0976 IU/mg

— patent publication US11312790B2, “Production method for pentosan polysulfate” (OJI HOLDINGS CORPORATION, priority 2016, dated 2022)
